Legend:
[1] = tested on: CT26 tumor cells; assay: CT26 syngeneic mouse tumor model (survival and tumor volume); type: in vivo; conditions: for Median Survival: CT26 tumor bearing BALB/cJ mice, PF-06952229 30 mg/kg PO BID 7 days on/7 off, palbociclib 10 mg/kg PO BID, PF-06873600 50 mg/kg PO BID, survival endpoint tumor volume 2000 mm^3
Method: CT26 cells were obtained from American Type Culture Collection (ATCC) and cultured in Roswell Park Memorial Institute (RPM11640) supplemented with 10% fetal bovine serum (FBS). All cells were maintained in a humidified incubator at 37° C. with 5% carbon dioxide (CO2). Female Balb/cJ mice were obtained from Jackson Laboratories at 8 weeks of age. To generate the syngeneic model, 0.25 million CT26 tumor cells were subcutaneously implanted into the right flank of female BALB/cJ mice. Tumor bearing mice were randomized into six treatment groups based on average tumor sizes of approximately 50 mm^3 per group, on Day 10 post tumor cell implantation. Study groups included vehicle, 30 mg/kg PF-06952229, 10 mg/kg PD-0332991 (Palbociclib), PF-06873600 (CDK 2/4/6 inhibitor), combination of PF-06952229 +PD-0332991 and combination of PF-06952229+PF-06873600. PF-06952229 was administered orally twice daily (BID) with 7 days on and 7 days off schedule. PD-0332991 or PF-06873600 was administered orally BID continuously, until the end of the study.
Tumor volumes were measured three times a week. Tumor volume was calculated based on two dimensional caliper measurement with cubic millimeter volume calculated using the formula (length×width2)×0.5. Mice were sacrificed when the tumor volumes reached 2000 mm^3, which was the survival endpoint for this study. Survival curves were plotted using GraphPad Prism 7 software. Statistical analyses were performed using the Log-rank (Mantel-Cox) test.

[2] = tested on: MCF7 human ER+ breast cancer cells; assay: MCF7 human ER+ xenograft mouse tumor model (tumor volume); type: in vivo; conditions: NSG mice; Day 21 post-treatment initiation; PF-06952229 30 mg/kg PO BID 7 on/7 off, PD-0332991 10 mg/kg PO BID, PF-05279929 10 mg/kg SC twice per week; result in words
Method: MCF7 human ER^+ breast cancer cells were obtained from American Type Culture
Collection (ATCC) and cultured in Roswell Park Memorial Institute (RPMI1640) supplemented with 10% fetal bovine serum (FBS). All cells were maintained in a humidified incubator at 37° C. with 5% carbon dioxide (CO2). Female NSG mice were obtained from Jackson Laboratories at 7 weeks of age. To generate the xenograft model, 17β-ESTRADIOL pellets (0.36 mg, 90-day release) were subcutaneously implanted into the left flank of female NSG mice, 7 days before the tumor cell implantation. Then 5 million MCF7 cancer cells were subcutaneously implanted into the right axial region of female NSG mice. Tumor-bearing mice were randomized into treatment groups based on average tumor sizes of approximately 180 mm^3, on Day 27 post-tumor cell implantation, and treatments were initiated. […]
Tumor volumes were measured two times a week. Tumor volume was calculated based on two-dimensional caliper measurement with cubic millimeter volume calculated using the formula (length×width^2)×0.5. Body weights were measured two times a week. […] Comparisons of treated groups to control group or to other treated groups are made using a t statistic under the ANCOVA model with fold change and the associated 95% confidence interval calculated.

[3] = tested on: pS807/811 Rb; assay: Phospho-Rb Ser807/811 Bioassay of MCF7 xenograft tumor lysates; conditions: tumor samples Day 21 post-treatment initiation; result in words
[4] = tested on: pSMAD2; assay: pSMAD2 Bioassay of MCF7 xenograft tumor samples; type: in vivo, human; conditions: tumor samples Day 21 post-treatment initiation; result in words
Method: pSMAD2 Bioassay: Tumor samples were collected and snap-frozen in 2.0 mL cryogenic tubes (Nalgene™) prior to analysis. Thawed tumor samples were homogenized in cell extraction buffer (Invitrogen, Carlsbad, Calif.) with addition of protease and phosphatase inhibitors. Tumor lysates were centrifuged to pellet insoluble debris, and the clarified supernatants were transferred to new tubes. pSmad2 was measured using a 6-Plex TGFbeta Signaling Magnetic Bead Kit (Millipore, Burlington, Mass.). All assays were carried out at room temperature. After blocking a 96-well black round-bottom plate with assay buffer for 10 minutes, 25 μL of the working microsphere bead mixture (beads were diluted to 1× with assay buffer from kit) and 25 μL of 1:10 diluted tumor lysate (1:10 dilution with assay buffer) were added to the plate. […] After washing, the beads were resuspended in 150 μL/well of sheath fluid (Bio-Rad catalog # 171-000055) and analyzed using a Bio-Plex 200 analyzer (Bio-Rad, Hercules Calif.). The mean fluorescence intensity (MFI) from each well was determined using Bio-Plex Manager Software, version 6.1 (Bio-Rad). […]
Total Smad2 Bioassay: PathScan Total Smad2 Sandwich ELISA Kit (Cell signaling, Catolog #7244C) was used to determine the total Smad2 protein according to manufacturer's instructions. […] The absorbance of the samples at 450 nm was measured on a Spectramax plate reader (Molecular Devices).

| Compound | Median Survival [1] [days] | Tumor growth inhibition ([1]; Day 17 post-treatment initiation, result in words) | Survival ([1]; Day 40 post-treatment initiation, result in words) | Tumor growth inhibition [2] | pS807/811 Rb levels [3] | Inhibition of pSMAD2 [4] |
| --- | --- | --- | --- | --- | --- | --- |
| C[C@@]1(O)CCC[C@H]1n1c(=O)c(C(F)F)cc2cnc(NC3CCN(S(C)(=O)=O)CC3)nc21 [PF-06873600] | 26.5 |  |  |  |  |  |
| CC(C)c1cnc(-c2cc(Cl)ccc2F)cc1Nc1ccncc1C(=O)NC(CO)CO [PF-06952229, 4-(2-(5-chloro-2-fluorophenyl)-5-isopropylpyridin-4-ylamino)-N-(1,3-dihydroxypropan-2-yl)nicotinamide] | 24 | did not significantly inhibit tumor growth | did not significantly increase survival | did not significantly inhibit tumor growth | slight increase | significant inhibition of pSMAD2 |
| CC(=O)c1c(C)c2cnc(Nc3ccc(N4CCNCC4)cn3)nc2n(C2CCCC2)c1=O [Palbociclib, 6-acetyl-8-cyclopentyl-5-methyl-2-(5-piperazin-1-yl-pyridin-2-ylamino)-8H-pyrido[2,3-d]pyrimidin-7-one, reference compound] | 26.5 |  |  |  | slight decrease |  |

— US20210346384A1, “COMBINATIONS OF TGF-BETA INHIBITORS AND CDK INHIBITORS FOR CANCER TREATMENTS” (PFIZER INC., priority 2018, published 2021)
